Measured values published in US12195490B2, “STRAD-binding agents and uses thereof” (The Regents of the University of California, priority 2020, dated 2025).

molecular target: T1, LKB1 (Homo sapiens, UniProt Q15831+Q7RTN6); assay: in vitro LKB1 functional activity; format: biochemical; details: APA analogs
T1 sequence (Q15831 1-433): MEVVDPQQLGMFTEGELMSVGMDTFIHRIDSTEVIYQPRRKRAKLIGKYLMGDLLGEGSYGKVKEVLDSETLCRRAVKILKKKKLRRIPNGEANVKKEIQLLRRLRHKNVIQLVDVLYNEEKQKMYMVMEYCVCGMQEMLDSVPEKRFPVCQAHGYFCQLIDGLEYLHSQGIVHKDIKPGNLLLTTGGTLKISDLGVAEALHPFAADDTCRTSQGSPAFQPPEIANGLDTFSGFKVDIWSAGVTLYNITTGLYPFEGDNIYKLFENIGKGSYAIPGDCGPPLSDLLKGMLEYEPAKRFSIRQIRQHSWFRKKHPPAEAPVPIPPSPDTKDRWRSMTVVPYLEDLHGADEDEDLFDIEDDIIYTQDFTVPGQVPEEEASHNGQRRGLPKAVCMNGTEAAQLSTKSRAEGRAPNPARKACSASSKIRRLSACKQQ
T1 sequence (Q7RTN6 1-431): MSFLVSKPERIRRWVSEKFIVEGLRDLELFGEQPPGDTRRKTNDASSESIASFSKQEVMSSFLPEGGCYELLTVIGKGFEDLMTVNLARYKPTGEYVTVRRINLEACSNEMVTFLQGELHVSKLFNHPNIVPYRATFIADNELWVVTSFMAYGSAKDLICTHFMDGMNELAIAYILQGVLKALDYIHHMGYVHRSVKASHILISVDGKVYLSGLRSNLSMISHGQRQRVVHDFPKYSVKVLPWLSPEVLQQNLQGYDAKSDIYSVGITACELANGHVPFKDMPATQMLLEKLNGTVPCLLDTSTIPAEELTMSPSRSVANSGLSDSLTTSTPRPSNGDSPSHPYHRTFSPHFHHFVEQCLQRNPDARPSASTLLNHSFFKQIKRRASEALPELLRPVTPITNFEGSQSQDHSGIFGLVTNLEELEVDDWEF
T1 sequence (Q9Y376 1-341 partner): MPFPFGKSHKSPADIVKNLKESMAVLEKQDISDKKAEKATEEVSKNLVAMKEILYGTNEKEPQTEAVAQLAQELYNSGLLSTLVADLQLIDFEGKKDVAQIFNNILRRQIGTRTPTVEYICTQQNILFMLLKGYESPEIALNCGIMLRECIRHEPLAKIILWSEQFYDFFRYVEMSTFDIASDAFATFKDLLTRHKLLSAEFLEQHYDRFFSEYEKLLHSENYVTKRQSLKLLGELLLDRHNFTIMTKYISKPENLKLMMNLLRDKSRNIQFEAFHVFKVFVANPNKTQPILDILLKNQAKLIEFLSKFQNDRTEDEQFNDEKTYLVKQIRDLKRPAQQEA

LKB1 % Act. Increase	SMILES
D (D=<1000%)	Cc1ccc(-c2cnc(N)c(C(=O)Nc3ccc(S(=O)(=O)NC(=O)C(C)C)cc3)n2)cc1 [SU20668-0327, 3-amino-N-(4-(N-isobutyrylsulfamoyl)phenyl)-6-p-tolylpyrazine-2-carboxamide]
C (C=199-1000%)	CC(=O)NS(=O)(=O)c1ccc(NC(=O)c2nc(-c3ccc(S(N)(=O)=O)cc3)cnc2N)cc1 [SU20668-0351, N-(4-(N-acetylsulfamoyl)phenyl)-3-amino-6-(4-sulfamoylphenyl)pyrazine-2-carboxamide]
C (C=199-1000%)	CC(=O)NS(=O)(=O)c1ccc(NC(=O)c2nc(-c3ccc(N)cc3)cnc2N)cc1 [SU20668-0344, N-(4-(N-acetylsulfamoyl)phenyl)-3-amino-6-(4-aminophenyl)pyrazine-2-carboxamide]
D (D=<1000%)	CC(=O)NS(=O)(=O)c1ccc(NC(=O)c2nc(-c3cccc(N4CCOCC4)c3)cnc2N)cc1 [SU20668-0377, N-(4-(N-acetylsulfamoyl)phenyl)-3-amino-6-(3-morpholinophenyl)pyrazine-2-carboxamide]
D (D=<1000%)	Cc1ccc(-c2cnc(N)c(C(=O)Nc3ccc(S(=O)(=O)NS(C)(=O)=O)cc3)n2)cc1 [SU20668-0470, 3-amino-N-(4-(N-(methylsulfonyl)sulfamoyl)phenyl)-6-p-tolylpyrazine-2-carboxamide]
D (D=<1000%)	Cc1ccc(-c2cnc(N)c(C(=O)Nc3ccc(S(=O)(=O)NC(=O)CCOCc4ccccc4)cc3)n2)cc1 [SU20668-0368, 3-amino-N-(4-(N-(3-(benzyloxy)propanoyl)sulfamoyl)phenyl)-6-p-tolylpyrazine-2-carboxamide]
B (B=399-2000%)	Cc1ccc(-c2cnc(N)c(C(=O)Nc3ccc(S(=O)(=O)NC4(C)COC4)cc3)n2)cc1 [SU20668-0510, 3-amino-N-(4-(N-(3-methyloxetan-3-yl)sulfamoyl)phenyl)-6-p-tolylpyrazine-2-carboxamide]
C (C=199-1000%)	CC(=O)NS(=O)(=O)c1ccc(NC(=O)c2nc(-c3ccc(CO)cc3)cnc2N)cc1 [SU20668-0348, N-(4-(N-acetylsulfamoyl)phenyl)-3-amino-6-(4-(hydroxymethyl)phenyl)pyrazine-2-carboxamide]
D (D=<1000%)	CC(=O)NS(=O)(=O)c1ccc(NC(=O)c2nc(-c3ccc(OC(F)(F)F)cc3)cnc2N)cc1 [SU20668-0392, N-(4-(N-acetylsulfamoyl)phenyl)-3-amino-6-(4-(trifluoromethoxy)phenyl)pyrazine-2-carboxamide]
D (D=<1000%)	CC(=O)NS(=O)(=O)c1ccc(NC(=O)c2nc(-c3cccc(N)c3)cnc2N)cc1 [SU20668-0350, N-(4-(N-acetylsulfamoyl)phenyl)-3-amino-6-(3-aminophenyl)pyrazine-2-carboxamide]
C (C=199-1000%)	CC(=O)NS(=O)(=O)c1ccc(NC(=O)c2nc(-c3ccncc3F)cnc2N)cc1 [SU20668-0374, N-(4-(N-acetylsulfamoyl)phenyl)-3-amino-6-(3-fluoropyridin-4-yl)pyrazine-2-carboxamide]
D (D=<1000%)	Cc1ccc(-c2cnc(N)c(C(=O)Nc3ccc(C(N)=O)cc3)n2)cc1 [SU20668-0280, 3-amino-N-(4-carbamoylphenyl)-6-p-tolylpyrazine-2-carboxamide]
D (D=<1000%)	Cc1ccc(-c2cnc(N)c(C(=O)Nc3ccc(NS(C)(=O)=O)cc3)n2)cc1 [SU20668-0281]
D (D=<1000%)	CC(=O)NS(=O)(=O)c1ccc(NC(=O)c2nc(-c3ccc(C)c(F)c3)cnc2N)cc1 [SU20668-0390, N-(4-(N-acetylsulfamoyl)phenyl)-3-amino-6-(3-fluoro-4-methylphenyl)pyrazine-2-carboxamide]
D (D=<1000%)	CC(=O)NS(=O)(=O)c1ccc(NC(=O)c2nc(-c3ccc(C(N)=O)cc3)cnc2N)cc1 [SU20668-0342, N-(4-(N-acetylsulfamoyl)phenyl)-3-amino-6-(4-carbamoylphenyl)pyrazine-2-carboxamide]
C (C=199-1000%)	Cc1ccc(-c2cnc(N)c(C(=O)Nc3ccc(C(=O)OC(C)(C)C)c(F)c3)n2)cc1 [SU20668-0308, tert-butyl 4-(3-amino-6-p-tolylpyrazine-2-carboxamido)-2-fluorobenzoate]
C (C=199-1000%)	Cc1ccc(-c2cnc(N)c(C(=O)Nc3ccc(CS(N)(=O)=O)cc3)n2)cc1 [SU20668-0331, 3-amino-N-(4-(sulfamoylmethyl)phenyl)-6-p-tolylpyrazine-2-carboxamide]

The next lines start with the compound.

SMILES	LKB1 % Act. Increase
Cc1ccc(-c2cnc(N)c(C(=O)Nc3ccc([S@SP3](=O)(=O)CP(=O)(O)O)cc3)n2)cc1 [SU20668-0312, (((4-(3-amino-6-(p-tolyl)pyrazine-2-carboxamido)phenyl)sulfonyl)methyl)phosphonic acid]	C (C=199-1000%)
CCOP(=O)(O)CS(=O)(=O)c1ccc(NC(=O)c2nc(-c3ccc(C)cc3)cnc2N)cc1 [SU20668-0338, ethyl hydrogen (((4-(3-amino-6-(p-tolyl)pyrazine-2-carboxamido)phenyl)sulfonyl)methyl)phosphonate]	D (D=<1000%)
CCOP(=O)(OCC)C(C)(C)S(=O)(=O)c1ccc(NC(=O)c2nc(-c3ccc(C)cc3)cnc2N)cc1 [SU20668-0486, diethyl 2-(4-(3-amino-6-p-tolylpyrazine-2-carboxamido)phenylsulfonyl)propan-2-ylphosphonate]	B (B=399-2000%)
CCOP(C)(=O)COc1ccc(NC(=O)c2nc(-c3ccc(C)cc3)cnc2N)cc1 (stereo not shown) [SU20668-0476]	D (D=<1000%)
COc1cc(F)c(-c2cnc(N)c(C(=O)Nc3ccc(S(=O)(=O)NC(C)=O)cc3)n2)c(F)c1 [SU20668-0375, N-(4-(N-acetylsulfamoyl)phenyl)-3-amino-6-(2,6-difluoro-4-methoxyphenyl)pyrazine-2-carboxamide]	D (D=<1000%)
CCOP(=O)(OCC)C(C)S(=O)(=O)c1ccc(NC(=O)c2nc(-c3ccc(C)cc3)cnc2N)cc1 (stereo not shown) [SU20668-0505, diethyl 1-(4-(3-amino-6-p-tolylpyrazine-2-carboxamido)phenylsulfonyl)ethylphosphonate]	A (A=>4000%)
CCC(=O)NS(=O)(=O)c1ccc(NC(=O)c2nc(-c3ccc(C)cc3)cnc2N)cc1 [SU20668-0325, 3-amino-N-(4-(N-propionylsulfamoyl)phenyl)-6-p-tolylpyrazine-2-carboxamide]	C (C=199-1000%)
CC(=O)NS(=O)(=O)c1ccc(NC(=O)c2nc(-c3cnc(C)nc3)cnc2N)cc1 [SU20668-0369, N-(4-(N-acetylsulfamoyl)phenyl)-3-amino-6-(2-methylpyrimidin-5-yl)pyrazine-2-carboxamide]	C (C=199-1000%)
CCOP(=O)(CS(=O)(=O)c1ccc(NC(=O)c2nc(-c3ccc(C)cc3)cnc2N)cc1F)OCC [SU20668-0482, diethyl (4-(3-amino-6-p-tolylpyrazine-2-carboxamido)-2-fluorophenylsulfonyl)methylphosphonate]	D (D=<1000%)
COP(=O)(CS(=O)(=O)c1ccc(NC(=O)c2nc(-c3ccc(C)c(O)c3)cnc2N)cc1)OC [SU20668-0496, dimethyl (4-(3-amino-6-(3-hydroxy-4-methylphenyl)pyrazine-2-carboxamido)phenylsulfonyl)methylphosphonate]	C (C=199-1000%)
Cc1ccc(-c2cnc(N)c(C(=O)Nc3ccc4c(c3)CNS4(=O)=O)n2)cc1 [SU20668-0288]	D (D=<1000%)
CCP(=O)(CC)CS(=O)(=O)c1ccc(NC(=O)c2nc(-c3ccc(C)cc3)cnc2N)cc1 [SU20668-0491, 3-amino-N-(4-((diethylphosphoryl)methylsulfonyl)phenyl)-6-p-tolylpyrazine-2-carboxamide]	B (B=399-2000%)
COP(=O)(CS(=O)(=O)c1ccc(NC(=O)c2nc(-c3cc(F)ccc3C#N)cnc2N)cc1)OC [SU20668-0446, dimethyl (4-(3-amino-6-(2-cyano-5-fluorophenyl)pyrazine-2-carboxamido)phenylsulfonyl)methylphosphonate]	D (D=<1000%)
Cc1ccc(-c2cnc(N)c(C(=O)Nc3ccc(S(=O)(=O)CP(C)(C)=O)cc3)n2)cc1 [SU20668-0492, 3-amino-N-[4-(dimethylphosphorylmethylsulfonyl)phenyl]-6-(p-tolyl)pyrazine-2-carboxamide]	B (B=399-2000%)
